The source of these data is patent US9029545B2, “Thienopyridine NOX2 inhibitors” (GlaxoSmithKline Intellectual Property Limited, priority 2009, dated 2015).

The experiment deals with T1, NOX2 in differentiated HL60 cells (Homo sapiens, UniProt P04839).
T1 construct: Differentiation of HL-60 cells to granulocytes increases NOX2 expression; endogenous in cells; host or cells: HL60 cells differentiated to neutrophil-like cells with 1.3% DMSO and stimulated with PMA
T1 sequence (P04839 1-570): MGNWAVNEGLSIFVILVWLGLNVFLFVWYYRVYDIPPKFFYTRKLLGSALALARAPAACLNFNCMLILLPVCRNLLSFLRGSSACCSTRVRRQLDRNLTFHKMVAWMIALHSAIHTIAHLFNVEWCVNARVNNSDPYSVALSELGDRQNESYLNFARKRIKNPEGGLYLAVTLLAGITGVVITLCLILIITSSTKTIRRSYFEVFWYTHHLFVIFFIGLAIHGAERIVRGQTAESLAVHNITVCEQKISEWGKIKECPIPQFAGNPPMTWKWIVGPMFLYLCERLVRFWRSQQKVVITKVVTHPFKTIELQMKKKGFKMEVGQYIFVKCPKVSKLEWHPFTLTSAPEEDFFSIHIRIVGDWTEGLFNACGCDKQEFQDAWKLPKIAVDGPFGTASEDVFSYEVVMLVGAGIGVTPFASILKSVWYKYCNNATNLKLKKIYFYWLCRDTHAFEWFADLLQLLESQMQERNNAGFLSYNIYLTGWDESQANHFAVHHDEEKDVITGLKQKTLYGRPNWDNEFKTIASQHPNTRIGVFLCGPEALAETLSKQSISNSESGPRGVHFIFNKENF
T1 sequence (P13498 1-195 partner): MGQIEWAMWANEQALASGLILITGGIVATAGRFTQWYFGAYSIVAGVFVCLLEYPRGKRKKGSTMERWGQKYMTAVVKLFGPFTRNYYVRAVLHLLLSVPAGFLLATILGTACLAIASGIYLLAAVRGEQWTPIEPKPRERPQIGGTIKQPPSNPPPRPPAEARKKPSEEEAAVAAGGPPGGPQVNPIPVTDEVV
Briefly: HL60 cell-based assays (Assay 1 Oxyburst green BSA fluorescence, Assay 2 L-012 luminescence); result stated for at least one of them. Conditions: PMA-stimulated superoxide production in differentiated HL60 cells; at least one of Oxyburst and L012 assays; read-out: pIC50 in at least one of the HL60 assays (converted). As to the method:
In the cell-based assay, superoxide production by NOX2 was measured in differentiated HL60 cells, a human myelomonocytic leukemia cell line, using either Oxyburst (Assay1) or L012 (Assay2). Differentiation of HL-60 cells to granulocytes increases NOX2 expression. The phorbol 12-myristate 13-acetate (PMA) was used to stimulate the production of superoxide in HL60 cells by activating protein kinase C, which then activated the NADPH oxidase (NOX) enzymes. Inhibition of NOX2 enzyme was detected by the reversal of fluorescence signal (Assay1) or luminescence signal (Assay2). The control inhibitor used was diphenyleneiodonium chloride (DPI), a […] inhibitor capable of non-selectively inhibiting superoxide produced by NOX enzymes.
Assay 1: in this high-throughput screening assay, oxyburst green bovine serum albumin (BSA) was used to detect superoxide production in HL60 cells. Oxidation of Oxyburst green BSA by hydrogen peroxide as a result of the activation of NOX2 by PMA. Oxyburst green BSA fluorescence was measured at excitation 485 nm and emission 530 nm.
Assay 2: in this assay, a chemiluminescence probe, L-012 was used to detect superoxide production in HL60 cells. L-012 reacted with various types of reactive oxygen species generated by PMA-activated HL60 cells. Luminescence was measured using Tecan Infinite 500.
The HL60 cells were differentiated into neutrophil-like cells by adding 1.3% DMSO in the media for 3-7 days (Hua, J et al. (2000) Journal of Leukocyte Biology. 68:216-224). Iscove's Modified Dulbecco's Media (IMDM) with L-Glutamine and 25 mM HEPES buffer, Fetal Bovine Serum (FBS), Penicillin/Streptomycin, Oxyburst Green BSA, PBS, and HBSS buffer with Calcium Chloride and Magnesium Chloride were purchased from Invitrogen (Catalog #s: 12440-061, 10500-064, 15140-163, O-13291, 14190-250, and 14025-134 respectively). Phorbol 12-myristate 13-acetate (PMA), glucose, and CHAPS were purchased from Sigma (Catalog #s: 79346, D-9434, and C5070 respectively). Diphenyleneiodonium chloride (DPI) was purchased from Toronto Research Chemicals (Catalog #: D491500). L-012 was purchased from Wako Chemical (Catalog #: 120-04891). Dimethyl sulfoxide (DMSO) was purchased EMD Chemicals (VWR Catalog #: MX1456-1). Multidrop combi was purchased from Thermo Electron Corporation (Waltham, Mass., USA). Hummingbird nanoliter liquid dispenser was purchased from Genomics Solution (Ann Arbor, Mich., USA). 384 well low-volume plates and polypropylene 384 well clear plates were purchased from Greiner (Catalog #: 784076 and 781280 respectively). 96 well plate and 384 well plate black assay plates were purchased from Greiner (Catalog #: 655094 and 781098). 96 well plate for compound serial dilution was purchased from Corning (Catalog #: 9017). Acquest or Analyst fluorescence plate reader was purchased from LJL Biosystems/Molecular Devices (California, USA). Tecan Infinite 500 was purchased from Tecan (Switzerland).
Media for HL60 cells were kept at 4° C. for storage and were warmed to 37° C. in a water bath before use. The media components were IMDM media with 20% FBS and 1% Penicillin/Streptomycin.
Buffer to be used for compound addition and compound dilution consisted of HBSS buffer with 0.1% glucose.
Buffer to be used for cells consisted of HBSS buffer with 0.1% glucose and 0.01% CHAPS.
HL60 cells were thawed and resuspended in Cells media. The cells were centrifuged at 1200 rpm for 8 minutes. Media was aspirated and the cells were resuspended in Cells buffer. The cells were counted and resuspended to 1×10^6 cells/mL.
Full inhibition controls were dispensed using 100 nL/well of 1 mM DPI in DMSO to column 18 of a 384 well plate. Compounds were dispensed using 100 nL/well. Full activity controls were dispensed using 100 nL/well of 4 uM PMA in DMSO. Oxyburst Green BSA was added to cell solution at 10 ug/mL. Using the Multidrop, 10 uL cell solution was added to the entire assay plate. The assay plate was incubated at room temperature for 100 minutes. […]

On to `COC(=O)c1sc2nc(C)cc(NS(=O)(=O)c3cccc(Cl)c3)c2c1-c1cccc(OC)c1` [Example 36, Methyl 4-{[(3-chlorophenyl)sulfonyl]amino}-6-methyl-3-[3-(methyloxy)phenyl]thieno[2,3-b]pyridine-2-carboxylate], for which the IC50 was less than 100 µM.

For `COc1cccc(-c2c(C)sc3nc(C)cc(NS(=O)(=O)c4cccc(Cl)c4)c23)c1` [Example 1, 3-Chloro-N-{2,6-dimethyl-3-[3-(methyloxy)phenyl]thieno[2,3-b]pyridin-4-yl}-benzenesulfonamide], the IC50 was less than 100 µM.

With `Cc1cccc(-c2c(C)sc3nc(C)cc(NS(=O)(=O)c4cccc(Cl)c4)c23)c1` [Example 69, 3-Chloro-N-[2,6-dimethyl-3-(3-methylphenyl)thieno[2,3-b]pyridin-4-yl]benzenesulfonamide], the IC50 was less than 100 µM.
